Data: US5231013A, “Polycyclic peptide antibiotic gallidermin” (priority 1988, dated 1993)
No end group written: not given here.

Columns and labels:
Format in all cases: cell-based
Propionibacterium acnes = assay: Comparative MIC study with epidermin
Source text: In a comparative study with epidermin or Propionibacterium acnes the following MIC values were obtained: […]

Sc. pyogenes ATCC 8668 = assay: MIC in liquid BF medium
Description: (§1) Minimal inhibitory concentrations (MIC, Table 1) were determined in liquid BF medium of the following composition: sodium lactate 0.5%, sodium sulfate 0.5%, potassium dihydrogenphosphate 0.05%, dipotassium hydrogenphosphate 0.15%, magnesium chloride 0.02%, ammonium chloride 0.05%, glucose 1%; supplemented (per ml) with Ca-pantothenate 50 μg, folic acid 0.25 μg, niacin 50 μg, p-aminobenzoic acid 25 μg, pyridoxal hydrochloride 50 μg and riboflavin 25 μg.

[1] = tested on: Peptostreptococcus anaerobicus; assay: MIC in liquid BF medium
Description: as §1

St. aureus SG 511 = assay: MIC in liquid BF medium
Description: as §1

St. aureus E 88 = assay: MIC in liquid BF medium
Description: as §1

Bac. fragilis (Koln) = assay: MIC in liquid BF medium
Description: as §1

Sc. faecalis ATCC 29212 = assay: MIC in liquid BF medium
Description: as §1

Mc. luteus ATCC 9341 = assay: MIC in liquid BF medium
Description: as §1

Mc. luteus 15957 = assay: MIC in liquid BF medium
Description: as §1

Ps. aeruginosa BC 19 = assay: MIC in liquid BF medium
Description: as §1

Bac. fragilis (Bonn) = assay: MIC in liquid BF medium
Description: as §1

E. coli ATCC 11775 = assay: MIC in liquid BF medium
Description: as §1

Cb. xerosis ATCC 9755 = assay: MIC in liquid BF medium
Description: as §1

St. pneumoniae ATCC 6302 = assay: MIC in liquid BF medium
Description: as §1

[2] = tested on: St. epidermidis ATCC 12228; assay: MIC in liquid BF medium
Description: as §1

Epidermin (IASKFICTPGCAKTGSFNSYCC; cysteine pairing not given here; also: lantibiotic: post-translational modifications not placed; UniProt P08136 31-52, looked up) [known polycyclic lanthionine peptide antibiotic obtained by cultivating a strain of Staphylococcus epidermis; differs from gallidermin by one amino acid, reference compound]
MIC (Propionibacterium acnes): 0.25 µg/mL

Gallidermin (IASKFLCTPGCAKTGSFNSYCC; cysteine pairing not given here; also: lantibiotic: post-translational modifications not placed; UniProt P21838 31-52, looked up) [polycyclic lanthionine peptide antibiotic produced by cultivation of Staphylococcus gallinarum (F16/P57) Tu 3928 (DSM 4616)]
MIC (Propionibacterium acnes): 0.125 µg/mL | MIC (Sc. pyogenes ATCC 8668): 1 µg/mL | MIC [1]: 0.5 µg/mL | MIC (St. aureus SG 511): 4 µg/mL | MIC (St. aureus E 88): 8 µg/mL | MIC (Bac. fragilis (Koln)): 128 µg/mL | MIC (Sc. faecalis ATCC 29212): 64 µg/mL | MIC (Mc. luteus ATCC 9341): 0.25 µg/mL | MIC (Mc. luteus 15957): 0.5 µg/mL | MIC (Ps. aeruginosa BC 19): 128 µg/mL | MIC (Bac. fragilis (Bonn)): 128 µg/mL | MIC (E. coli ATCC 11775): 128 µg/mL | MIC (Cb. xerosis ATCC 9755): 1 µg/mL | MIC (St. pneumoniae ATCC 6302): 4 µg/mL | MIC [2]: 4 µg/mL
